Test results taken from US20130287807A1, “COMPOUNDS FOR TREATING SYMPTOMS ASSOCIATED WITH PARKINSON'S DISEASE” (priority 2008, published 2013).
“Also recorded” adds a separate entry of the source.

Key:
[1] = system: monoclonal antibody (DAEFRH-peptide-specific); test: Inhibition assay (ELISA): mimotope peptides compete with plate-bound original epitope DAEFRH for recognition by the monoclonal antibody; assay type: binding, Mice; design: key to inhibition (s/m/—): s: strong inhibition; m: moderate inhibition; —: -: no inhibition; conditions: for inhibition of binding of the monoclonal antibody to the original epitope: text to FIGS. 2-9; for inhibition (s/m/—): peptide lists of Example 4; for Inhibitory capacity of mimotopes: summary Tables 1 and 2 (Examples 2, 3)
From the text: Mice are vaccinated with the 6mer peptide DAEFRH (natural N-terminal Aβ42 sequence) linked to the protein bovine serum albumin BSA (to make use of the hapten-carrier-effect), emulsified in CFA (first injection) and IFA (booster injections). DAEFRH-peptide-specific, antibody-producing hybridomas are detected by ELISA (DAEFRH-peptide-coated ELISA plates).
FIGS. 2 and 3 describe the results of inhibition assays performed with mimotope peptides included in and obtained from the 5 libraries (as described in WO 2004/062556). The mimotope peptides compete with the original epitope for recognition by the monoclonal antibody. Original epitope and mimotope peptides contain an additional C at the C-terminus for coupling to a protein carrier (if desired).
(§1) After blocking with PBS/BSA 1% (200 μl/well, 12 h, 4° C.), the plates are washed 3× times with PBS/Tween. Then, biotinylated monoclonal antibody (1:2000, 50 μl/well) and peptides (50 μl/well) at 50, 5, 0.5, 0.05, 0.005, and 0.0005 μg/ml are added for 20 min. at 37° C. The plates are washed 3× times with PBS/Tween and are incubated with horseradish peroxidase (HRP)-labeled streptavidin (100 μl/well, 30 min, RT). The plates are washed 5× times with PBS/Tween and are incubated with ABTS+H2O2(0.1% w/v, 10 to 45 min) and the reaction is stopped with citric acid followed by photometric evaluation (wavelength 405 nm).
as §1, with “different concentrations” for “50, 5, 0.5, 0.05, 0.005, and 0.0005 μg/ml”, “ABTS+H2O2 (0.1%” for “ABTS+H2O2(0.1%”
as §1, with “different concentrations” for “50, 5, 0.5, 0.05, 0.005, and 0.0005 μg/ml”

[2] = system: monoclonal antibody MV-001; test: In vitro binding assay (ELISA), BSA-coupled peptides, parental antibody MV-001; design: species or system C57/B16 mice; conditions: Table 1C; peptide-BSA on plate, compared to original epitope
Procedure: Peptides derived from Phage Display as well as variants thereof were coupled to BSA and bound to ELISA plates (1 μM; as indicated in the respective figures) and subsequently incubated with the monoclonal antibody that was used for the screening procedure to analyse binding capacity of identified peptides.
Legend to Table 1C: the binding capacity is coded by the following binding code: 1:X describes the dilution factor of the parental AB

[3] = competition ELISA, plate-bound DAEFRH-C-BSA

Row | Molecule | inhibition of binding of the monoclonal antibody to the original epitope [1, 3] | Binding Capacity [2] | also measured
1 | SAEFRAT [Peptide 4016] | strongly block epitope recognition |  | inhibition (s/m/—) [1]: s
2 | DAEFRH (DAEFRHC) [Peptide 1737, reference compound] | can successfully compete |  | 
3 | TSTEMWHC [p4754] |  | 1 (weak binding :<4000) | 
4 | DIGWRG (DIGWRGC) [Peptide 3011] | not inhibitory |  | Inhibitory capacity of mimotopes [1]: none
5 | QVMRHHAC [p4711] |  | 2 (medium binding :4000-20000) | 
6 | EFLRHTLC [p4722] |  | 3 (strong binding :>20000) | 
7 | VPTSALA [Peptide 4037] | not inhibitory |  | inhibition (s/m/—) [1]: —
8 | QPNLFYHC [p4713] |  | 1 (weak binding :<4000) | 
9 | NELRHSTC [p4701] |  | 3 (strong binding :>20000) | 
10 | VELRHSRC [p4704] |  | 2 (medium binding :4000-20000) | 
11 | SWEFRLY [Peptide 4018] | strongly block epitope recognition |  | inhibition (s/m/—) [1]: s
12 | SLMRHSSC [p4721] |  | 2 (medium binding :4000-20000) | 
13 | HEPLFSHC [p4719] |  | 1 (weak binding :<4000) | 
14 | SAEFRTQ [Peptide 4015] | strongly block epitope recognition |  | inhibition (s/m/—) [1]: s
15 | AEFMHSVC [p4739] |  | 2 (medium binding :4000-20000) | 
16 | SQSYFKHC [p4755] |  | 3 (strong binding :>20000) | 
17 | DISFRG (DISFRGC) [Peptide 3010] | not inhibitory |  | Inhibitory capacity of mimotopes [1]: none
18 | SNFRHSVC [p4749] |  | 3 (strong binding :>20000) | 
19 | ATFRHSPC [p4716] |  | 2 (medium binding :4000-20000) | 
20 | THMEFRRC [p4745] |  | 3 (strong binding :>20000) | 
21 | C[C@@H](O)[C@H](NC(=O)[C@H](CCCNC(=N)N)NC(=O)[C@H](Cc1ccccc1)NC(=O)[C@H](CCC(=O)O)NC(=O)[C@H](Cc1c[nH]c2ccccc12)NC(=O)[C@@H](N)CO)C(=O)N[C@@H](CS)C(=O)O [Peptide 4002, SWEFRT] | block epitope recognition |  | IC50 (inhibition of monoclonal antibody recognition of DAEFRH) ([1]; competition ELISA, plate-bound DAEFRH-C-BSA, biotinylated mAb 1:2000): less than 0.4 μg/ml; Inhibitory capacity of mimotopes [1]: strong

Row | Molecule | inhibition of binding of the monoclonal antibody to the original epitope [1, 3] | Binding Capacity [2] | also measured
22 | YREFRI (YREFRIC) [Peptide 3004] | block epitope recognition; also recorded: only inhibitory at a high concentration (50 μg/ml) |  | Inhibitory capacity of mimotopes [1]: weak
23 | QLFKHSPC [p4747] |  | 3 (strong binding :>20000) | 
24 | SWFRNP [Peptide 4019] | not inhibitory |  | inhibition (s/m/—) [1]: —
25 | AANYFPRC [p4706] |  | 2 (medium binding :4000-20000) | 
26 | GEMRHQPC [p4702] |  | 3 (strong binding :>20000) | 
27 | DTYFPRSC [p4703] |  | 2 (medium binding :4000-20000) | 
28 | SQYFPRPC [p4729] |  | 2 (medium binding :4000-20000) | 
29 | N=C(N)NCCC[C@H](NC(=O)[C@H](Cc1ccccc1)NC(=O)[C@H](CCC(=O)O)NC(=O)[C@H](Cc1ccccc1)NC(=O)[C@@H](N)CO)C(=O)NCC(=O)N[C@@H](CS)C(=O)O [Peptide 3009, SFEFRG] |  |  | Inhibitory capacity of mimotopes [1]: weak
30 | APIQFRHC [p4750] |  | 3 (strong binding :>20000) | 
31 | APMYFPHC [p4717] |  | 2 (medium binding :4000-20000) | 
32 | SAGSFRHC [p4710] |  | 3 (strong binding :>20000) | 
33 | SNSEFRRC [p4743] |  | 3 (strong binding :>20000) | 
34 | AYFPHTSC [p4751] |  | 2 (medium binding :4000-20000) | 
35 | SWEFRNP [Peptide 4017] | strongly block epitope recognition |  | inhibition (s/m/—) [1]: s
36 | YREFFI (YREFFIC) [Peptide 3003] | not able to inhibit |  | Inhibitory capacity of mimotopes [1]: none
37 | LQFKHSTC [p4734] |  | 2 (medium binding :4000-20000) | 
38 | SSSFFPRC [p4708] |  | 2 (medium binding :4000-20000) | 
39 | GSEFRDY [Peptide 4013] | moderately inhibit |  | inhibition (s/m/—) [1]: m
40 | DAEFRWP [Peptide 4011] | strongly block epitope recognition |  | inhibition (s/m/—) [1]: s
41 | CC[C@H](C)[C@H](NC(=O)[C@H](CCCNC(=N)N)NC(=O)[C@H](CC(C)C)NC(=O)[C@H](CCC(=O)O)NC(=O)[C@H](CCCNC(=N)N)NC(=O)[C@@H](N)CC(=O)O)C(=O)N[C@@H](CS)C(=O)O [Peptide 1235, DRELRI] | block epitope recognition |  | Inhibitory capacity of mimotopes [1]: strong
42 | NELFKHFC [p4727] |  | 2 (medium binding :4000-20000) | 

Row | Molecule | inhibition of binding of the monoclonal antibody to the original epitope [1, 3] | Binding Capacity [2] | also measured
43 | IGFRHDSC [p4742] |  | 2 (medium binding :4000-20000) | 
44 | GAEFRFT [Peptide 4014] | moderately inhibit |  | inhibition (s/m/—) [1]: m
45 | CC[C@H](C)[C@H](NC(=O)[C@H](CCCNC(=N)N)NC(=O)[C@H](CC(C)C)NC(=O)[C@H](CCC(=O)O)NC(=O)[C@H](Cc1c[nH]c2ccccc12)NC(=O)[C@@H](N)CC(=O)O)C(=O)N[C@@H](CS)C(=O)O [Peptide 3002, DWELRI] | block epitope recognition |  | Inhibitory capacity of mimotopes [1]: intermediate
46 | CC[C@H](C)[C@H](NC(=O)[C@H](CCCCN)NC(=O)[C@H](CC(C)C)NC(=O)[C@H](CCC(=O)O)NC(=O)[C@H](CCCCN)NC(=O)[C@@H](N)CC(=O)O)C(=O)N[C@@H](CS)C(=O)O [Peptide 1236, DKELKI] | block epitope recognition |  | Inhibitory capacity of mimotopes [1]: weak
47 | MLPFRHGC [p4731] |  | 2 (medium binding :4000-20000) | 
48 | SEFSHSSC [p4712] |  | 3 (strong binding :>20000) | 
49 | CC[C@H](C)[C@H](NC(=O)[C@H](CCCCN)NC(=O)[C@H](CC(C)C)NC(=O)[C@H](CCC(=O)O)NC(=O)[C@H](CCCNC(=N)N)NC(=O)[C@@H](N)CC(=O)O)C(=O)N[C@@H](CS)C(=O)O [Peptide 1237, DRELKI] | block epitope recognition |  | Inhibitory capacity of mimotopes [1]: weak
50 | WHWSWR (WHWSWRC) [Peptide 4004] | not able to inhibit |  | Inhibitory capacity of mimotopes [1]: none
51 | NSSELRHC [p4752] |  | 3 (strong binding :>20000) | 
52 | TYFSHSLC [p4718] |  | 2 (medium binding :4000-20000) | 
53 | ATPLFRHC [p4723] |  | 3 (strong binding :>20000) | 
54 | LHIPFRHC [p4726] |  | 3 (strong binding :>20000) | 
55 | ATFRHSTC [p4735] |  | 2 (medium binding :4000-20000) | 
56 | TGLMFKHC [p4736] |  | 2 (medium binding :4000-20000) | 
57 | QELKRYYC [p4724] |  | 1 (weak binding :<4000) | 
58 | SAMRHSLC [p4732] |  | 2 (medium binding :4000-20000) | 
59 | EDWFFWHC [p4709] |  | 1 (weak binding :<4000) | 
60 | YSMRHDAC [p4705] |  | 2 (medium binding :4000-20000) | 
61 | SELRHSTC [p4744] |  | 3 (strong binding :>20000) | 
62 | AEFSHWHC [p4737] |  | 2 (medium binding :4000-20000) | 
63 | TPLMFWHC [p4733] |  | 1 (weak binding :<4000) | 
